These results are taken from US20230219962A1, “PYRAZOLO[4,3-d]PYRIMIDINE DERIVATIVES AND METHODS OF USE THEREOF FOR THE TREATMENT OF CELLULAR PROLIFERATIVE DISORDERS” (Merck Sharp & Dohme LLC, priority 2020, published 2023).

One experiment has as its target T1, hTLR7 (Homo sapiens, UniProt Q9NYK1).
T1 construct: host or cells: HEK-Blue hTLR7 cells (HEK293-derived, own knowledge)
T1 sequence (Q9NYK1 27-1049): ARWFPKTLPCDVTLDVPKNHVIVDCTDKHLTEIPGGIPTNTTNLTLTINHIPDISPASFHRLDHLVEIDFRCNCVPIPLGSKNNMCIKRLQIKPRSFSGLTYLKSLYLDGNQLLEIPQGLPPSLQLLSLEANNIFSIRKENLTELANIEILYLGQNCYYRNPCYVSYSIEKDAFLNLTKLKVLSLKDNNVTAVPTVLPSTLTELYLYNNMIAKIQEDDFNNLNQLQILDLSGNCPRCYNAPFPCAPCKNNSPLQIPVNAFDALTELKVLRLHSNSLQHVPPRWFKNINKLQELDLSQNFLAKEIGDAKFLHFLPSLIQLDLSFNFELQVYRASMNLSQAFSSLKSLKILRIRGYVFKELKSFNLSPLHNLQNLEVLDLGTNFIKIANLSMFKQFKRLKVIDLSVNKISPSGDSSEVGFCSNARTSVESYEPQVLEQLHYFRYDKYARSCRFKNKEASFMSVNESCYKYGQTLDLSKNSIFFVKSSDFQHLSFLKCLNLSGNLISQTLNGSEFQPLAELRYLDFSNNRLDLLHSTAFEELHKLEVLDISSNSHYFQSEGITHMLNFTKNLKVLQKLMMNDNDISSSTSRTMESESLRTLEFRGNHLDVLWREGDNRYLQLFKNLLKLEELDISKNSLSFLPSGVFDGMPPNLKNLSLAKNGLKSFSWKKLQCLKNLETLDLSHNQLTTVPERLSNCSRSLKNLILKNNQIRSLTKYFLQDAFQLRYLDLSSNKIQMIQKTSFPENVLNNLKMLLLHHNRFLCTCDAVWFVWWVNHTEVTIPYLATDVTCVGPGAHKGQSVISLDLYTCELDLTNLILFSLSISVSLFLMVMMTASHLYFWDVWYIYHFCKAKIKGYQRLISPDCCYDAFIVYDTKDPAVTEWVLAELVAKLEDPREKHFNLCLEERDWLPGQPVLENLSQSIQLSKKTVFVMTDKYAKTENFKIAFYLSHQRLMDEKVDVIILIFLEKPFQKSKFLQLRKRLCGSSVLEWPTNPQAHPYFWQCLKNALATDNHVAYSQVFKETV
Briefly: Human TLR7 Reporter Assay. The format is cell-based. To be noted: HEK-Blue hTLR7 cells, 16 hours, normalized to CL097 (6 μM) and DMSO. The procedure, abridged:
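HEK-Blue hTLR7 reporter cells (20,000/well) incubated 16 h at 37 °C with 10-point 3-fold compound dilutions; SEAP read by absorbance at 620 nm. Effects normalized between CL097 (6 μM) and DMSO controls; EC50 from 4-parameter fit.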
In general terms: Reporter assays use an easily measured gene product as a stand-in for the process of interest.

Another experiment deals with T2, hTLR8 (Homo sapiens, UniProt Q9NR97).
T2 construct: host or cells: HEK-Blue hTLR8 cells (HEK293-derived, own knowledge)
T2 sequence (Q9NR97 27-1041): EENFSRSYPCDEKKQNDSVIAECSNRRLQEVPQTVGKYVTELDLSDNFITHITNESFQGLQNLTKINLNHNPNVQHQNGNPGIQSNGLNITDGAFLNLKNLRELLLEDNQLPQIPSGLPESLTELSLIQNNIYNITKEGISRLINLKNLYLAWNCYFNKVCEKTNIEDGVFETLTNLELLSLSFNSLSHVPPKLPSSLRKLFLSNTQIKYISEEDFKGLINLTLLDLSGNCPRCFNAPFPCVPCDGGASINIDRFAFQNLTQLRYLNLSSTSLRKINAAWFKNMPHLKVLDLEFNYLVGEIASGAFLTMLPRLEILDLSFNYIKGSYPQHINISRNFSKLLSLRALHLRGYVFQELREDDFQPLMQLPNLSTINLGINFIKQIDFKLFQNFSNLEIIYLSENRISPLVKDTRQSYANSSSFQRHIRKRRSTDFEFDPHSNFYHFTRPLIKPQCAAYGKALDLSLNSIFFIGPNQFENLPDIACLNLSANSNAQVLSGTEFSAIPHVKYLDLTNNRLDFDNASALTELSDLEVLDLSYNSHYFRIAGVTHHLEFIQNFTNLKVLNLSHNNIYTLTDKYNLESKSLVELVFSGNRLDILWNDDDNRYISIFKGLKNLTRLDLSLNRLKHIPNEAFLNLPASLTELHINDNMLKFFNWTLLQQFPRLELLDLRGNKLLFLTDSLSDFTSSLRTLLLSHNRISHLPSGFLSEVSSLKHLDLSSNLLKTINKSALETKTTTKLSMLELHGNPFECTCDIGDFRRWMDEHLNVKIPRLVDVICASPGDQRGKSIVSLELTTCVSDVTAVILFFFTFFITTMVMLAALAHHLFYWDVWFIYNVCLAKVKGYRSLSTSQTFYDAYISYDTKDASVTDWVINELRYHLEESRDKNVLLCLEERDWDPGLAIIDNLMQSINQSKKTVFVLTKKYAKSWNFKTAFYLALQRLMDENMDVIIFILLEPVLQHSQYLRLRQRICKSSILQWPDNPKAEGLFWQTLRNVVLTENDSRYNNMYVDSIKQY
Briefly: Human TLR8 Reporter Assay. The format is cell-based. To be noted: HEK-Blue hTLR8 cells, 16 hours, normalized to tl8-506 (1 μM) and DMSO. In a few lines:
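HEK-Blue hTLR8 cells (20,000/well) incubated 16 h at 37 °C with 10-point 3-fold compound dilutions in HEK-Blue Detection medium; reporter read as absorbance at 620 nm. Effects normalized between DMSO and tl8-506 (1 μM); EC50 from 4-parameter fit.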

The structures appear in SMILES notation.

The EC50 is the concentration needed to bring the measured effect to its halfway point. Turning to `COc1cccc(OC)c1Cn1cc2nc(N)nc(NCCC(C)C)c2n1` [Compound 53], the EC50 on hTLR7 is 858 nM; on hTLR8, more than 29900 nM.
On the same counts, the results for `CCCCNc1nc(N)nc2cn(Cc3ncc(N4CCNCC4)cc3OC)nc12` [Compound 99] are 633 nM and 1380 nM.
On the same counts, the results for `CCCCNc1nc(N)nc2cn(Cc3nc(CNC)oc3C)nc12` [Compound 165] are 1360 nM and 4680 nM.
For `CCCCNc1nc(N)nc2cn(Cc3ccccc3OC)nc12` [Compound 1], in that order: 665 nM and 4900 nM.
With `CCCCNc1nc(N)nc2cn(Cc3c(OC)cc(CN4CCNCC4)cc3OC)nc12` [Compound 62], the EC50 at hTLR7 was found to be 840 nM; on hTLR8, 1490 nM.
For `CCCCNc1nc(N)nc2cn(Cc3ccc(N4CCN(C(=O)[C@H]5CC[C@H](CN)CC5)CC4)cc3OC)nc12` [Compound 115], in that order: 329 nM and 5590 nM.
For the molecule `CCCCNc1nc(N)nc2cn(CCCCN)nc12` [Compound 42], the EC50 at hTLR7 is more than 29900 nM; on hTLR8 it was 2980 nM.
On the same counts, the results for `CCCCNc1nc(N)nc2cn(Cc3ccncc3OC)nc12` [Compound 93] are 120 nM and 611 nM.
For `CCC[C@@H](CO)Nc1nc(N)nc2cn(Cc3c(OC)cc(C(CN)N(C)CCC)cc3OC)nc12` (some centres unmarked) [Compound 223], in that order: 4840 nM and 1800 nM.
On to `CCCCNc1nc(N)nc2cn(Cc3ccon3)nc12` [Compound 117], for which the EC50 on hTLR7 came to 751 nM; on hTLR8, 2200 nM.
